Assays:
[1] = J. Karnatak Univ., Sci. (1984), 29, 82-6; cited from earlier work
[2] = molecular target: T1, VEGF receptor tyrosine kinase (Homo sapiens, UniProt P17948); assay: In vitro receptor tyrosine kinase inhibition test (VEGF receptor); format: biochemical
T1 construct: encoding most of the cytoplasmic domain, commencing with methionine 783 and including the termination codon; made in house; host or cells: Spodoptera frugiperda Sf21 insect cells (baculovirus); cleared Triton X100 lysate used as enzyme stock
T1 sequence (P17948 781-1338 limits assumed): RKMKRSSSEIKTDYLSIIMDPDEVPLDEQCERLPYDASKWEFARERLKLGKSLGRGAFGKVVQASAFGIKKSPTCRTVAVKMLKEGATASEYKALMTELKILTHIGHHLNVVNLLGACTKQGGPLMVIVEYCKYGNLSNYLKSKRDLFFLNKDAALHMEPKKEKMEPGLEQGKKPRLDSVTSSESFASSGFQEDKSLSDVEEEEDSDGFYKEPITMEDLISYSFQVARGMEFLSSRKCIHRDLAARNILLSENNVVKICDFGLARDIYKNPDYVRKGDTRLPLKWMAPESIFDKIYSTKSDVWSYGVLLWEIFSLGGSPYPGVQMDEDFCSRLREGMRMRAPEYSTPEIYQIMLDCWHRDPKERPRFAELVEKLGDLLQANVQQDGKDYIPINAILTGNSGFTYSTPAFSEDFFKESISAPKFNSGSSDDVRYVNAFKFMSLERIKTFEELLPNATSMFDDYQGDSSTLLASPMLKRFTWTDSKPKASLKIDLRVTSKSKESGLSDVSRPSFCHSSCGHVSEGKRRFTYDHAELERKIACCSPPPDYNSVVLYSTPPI
Text: (§1) (a) In Vitro Receptor Tyrosine Kinase Inhibition Test
This assay determines the ability of a test compound to inhibit tyrosine kinase activity. […] These may then be expressed in a suitable expression system to obtain polypeptide with tyrosine kinase activity. […] This recombinant construct was co-transfected into insect cells (for example Spodoptera frugiperda 21 (Sf21)) with viral DNA (eg Pharmingen BaculoGold) to prepare recombinant baculovirus.
For expression of cFlt tyrosine kinase activity, Sf21 cells were infected with plaque-pure cFlt recombinant virus at a multiplicity of infection of 3 and harvested 48 hours later. […] The suspension was centrifuged for 10 minutes at 13.000 rpm at 4° C., the supernatant (enzyme stock) was removed and stored in aliquots at −70° C. Each new batch of stock enzyme was titrated in the assay by dilution with enzyme diluent (100 mM Hepes pH 7.4, 0.2 mM Na3VO4, 0.1% v/v Triton X100, 0.2 mM dithiothreitol). For a typical batch, stock enzyme is diluted 1 in 2000 with enzyme diluent and 50 μl of dilute enzyme is used for each assay well.
(§2) A stock of substrate solution was prepared from a random copolymer containing tyrosine, for example Poly (Glu, Ala, Tyr) 6:3:1 (Sigma P3899), stored as 1 mg/ml stock in PBS at −20° C. and diluted 1 in 500 with PBS for plate coating.
(§3) On the day before the assay 100 μl of diluted substrate solution was dispensed into all wells of assay plates (Nunc maxisorp 96-well immunoplates) which were sealed and left overnight at 4° C.
(§4) On the day of the assay the substrate solution was discarded and the assay plate wells were washed once with PBST (PBS containing 0.05% v/v Tween 20) and once with 50 mM Hepes pH7.4.
Test compounds were diluted with 10% dimethylsulphoxide (DMSO) and 25 μl of diluted compound was transferred to wells in the washed assay plates. “Total” control wells contained 10% DMSO instead of compound. Twenty five microliters of 40 mM MnCl2 containing 8 μM adenosine-5′-triphosphate (ATP) was added to all test wells except “blank” control wells which contained MnCl2 without ATP. To start the reactions 50 μl of freshly diluted enzyme was added to each well and the plates were incubated at room temperature for 20 minutes. The liquid was then discarded and the wells were washed twice with PBST. […] Plates were then incubated for 20-60 minutes at room temperature until the optical density value of the “total” control wells, measured at 405 nm using a plate reading spectrophotometer, was approximately 1.0.

[3] = molecular target: T2, epidermal growth factor (EGF) receptor tyrosine kinase (Homo sapiens, UniProt P00533); assay: In vitro receptor tyrosine kinase inhibition test (EGF receptor); format: biochemical
T2 construct: made in house; host or cells: insect cells (baculovirus, as for Flt)
Text: as §1
This assay determines the ability of a test compound to inhibit tyrosine kinase activity. DNA encoding VEGF or epidermal growth factor (EGF) receptor cytoplasmic domains may be obtained by total gene synthesis (Edwards M, International Biotechnology Lab 5(3), 19-25, 1987) or by cloning. These may then be expressed in a suitable expression system to obtain polypeptide with tyrosine kinase activity. […] In the case of the VEGF receptor Flt (Genbank accession number X51602), a 1.7 kb DNA fragment encoding most of the cytoplasmic domain, commencing with methionine 783 and including the termination codon, described by Shibuya et al (Oncogene, 1990, 5: 519-524), was isolated from cDNA and cloned into a baculovirus transplacement vector (for example pAcYM1 (see The Baculovirus Expression System: A Laboratory Guide, L. A. King and R. D. Possee, Chapman and Hall, 1992) or pAc360 or pBlueBacHis (available from Invitrogen Corporation)). This recombinant construct was co-transfected into insect cells (for example Spodoptera frugiperda 21 (Sf21)) with viral DNA (eg Pharmingen BaculoGold) to prepare recombinant baculovirus. (Details of the methods for the assembly of recombinant DNA molecules and the preparation and use of recombinant baculovirus can be found in standard texts for example Sambrook et al, 1989. Molecular cloning—A Laboratory Manual, 2nd edition, Cold Spring Harbour Laboratory Press and O'Reilly et al, 1992, Baculovirus Expression Vectors—A Laboratory Manual. W. H. Freeman and Co. New York). For other tyrosine kinases for use in assays, cytoplasmic fragments starting from methionine 806 (KDR, Genbank accession number L04947) and methionine 668 (EGF receptor, Genbank accession number X00588) may be cloned and expressed in a similar manner.
For expression of cFlt tyrosine kinase activity, Sf21 cells were infected with plaque-pure cFlt recombinant virus at a multiplicity of infection of 3 and harvested 48 hours later. Harvested cells were washed with ice cold phosphate buffered saline solution (PBS) (10 mM sodium phosphate pH7.4, 138 mM NaCl, 2.7 mM KCl) then resuspended in ice cold HNTG/PMSF (20 mM Hepes pH7.5, 150 mM NaCl, 10% v/v glycerol, 1% v/v Triton X100. 1.5 mM MgCl2, 1 mM ethylene glycol-bis(βaminoethyl ether) N,N,N′,N′-tetraacetic acid (EGTA), 1 mM PMSF (phenylmethylsulphonyl fluoride); the PMSF is added just before use from a freshly-prepared 100 mM solution in methanol) using 1 ml HNTG/PMSF per 10 million cells. The suspension was centrifuged for 10 minutes at 13.000 rpm at 4° C., the supernatant (enzyme stock) was removed and stored in aliquots at −70° C. Each new batch of stock enzyme was titrated in the assay by dilution with enzyme diluent (100 mM Hepes pH 7.4, 0.2 mM Na3VO4, 0.1% v/v Triton X100, 0.2 mM dithiothreitol). For a typical batch, stock enzyme is diluted 1 in 2000 with enzyme diluent and 50 μl of dilute enzyme is used for each assay well.
as §2, §3, §4
Test compounds were diluted with 10% dimethylsulphoxide (DMSO) and 25 μl of diluted compound was transferred to wells in the washed assay plates. “Total” control wells contained 10% DMSO instead of compound. Twenty five microliters of 40 mM MnCl2 containing 8 μM adenosine-5′-triphosphate (ATP) was added to all test wells except “blank” control wells which contained MnCl2 without ATP. […]

T2 sequence (P00533 669-1210 limits assumed): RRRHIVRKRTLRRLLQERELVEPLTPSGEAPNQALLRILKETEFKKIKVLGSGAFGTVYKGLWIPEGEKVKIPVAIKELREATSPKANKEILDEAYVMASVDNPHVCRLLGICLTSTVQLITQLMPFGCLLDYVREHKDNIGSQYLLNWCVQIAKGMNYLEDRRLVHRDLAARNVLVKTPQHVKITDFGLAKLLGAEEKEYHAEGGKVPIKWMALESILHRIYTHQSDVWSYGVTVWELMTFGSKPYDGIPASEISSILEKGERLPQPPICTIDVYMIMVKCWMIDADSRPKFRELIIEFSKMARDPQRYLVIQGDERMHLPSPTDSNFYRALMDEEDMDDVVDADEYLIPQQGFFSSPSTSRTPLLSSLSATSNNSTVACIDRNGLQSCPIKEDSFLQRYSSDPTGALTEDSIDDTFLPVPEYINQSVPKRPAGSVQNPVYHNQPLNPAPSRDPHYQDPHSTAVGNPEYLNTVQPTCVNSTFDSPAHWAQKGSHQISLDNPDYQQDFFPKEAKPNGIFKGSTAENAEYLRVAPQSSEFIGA

Row | activity against VEGF receptor tyrosine kinase [2] | activity against epidermal growth factor (EGF) receptor tyrosine kinase [3] | Compound | anti-inflammatory and antiarthritic activity [1]
1 | – | – | COc1cc2nncc(Nc3cccc(Cl)c3)c2cc1OC [4-(3-chloroanilino)-6,7-dimethoxycinnoline] | some anti-inflammatory and antiarthritic activity
2 | – | – | COc1ccc(Nc2cnnc3cc(OC)c(OC)cc23)cc1 [4-(4-methoxyanilino)-6,7-dimethoxycinnoline] | some anti-inflammatory and antiarthritic activity
3 | good activity | lack of significant activity | COCCOc1cc2nncc(Nc3cc(O)c(Br)cc3F)c2cc1OC [Example 9, 4-(4-bromo-2-fluoro-5-hydroxyanihno)-6-methoxy-7-(2-methoxyethoxy)cinnoline] | –

Reference: patent US6514971B1, “Cinnoline derivatives and use as medicine” (Zeneca Limited, priority 1996, dated 2003)
